Patent US11578130B2, “Regulatable chimeric antigen receptor” (Novartis AG, priority 2013, dated 2023)

What was measured:
[1] = test system: PD-1-positive CD4, CD8 and PD-1-negative CD4 T cells; test: FACS analysis of PBMC for PD-1-positive and PD-1-negative T cells after RAD001 treatment; assay type: in vivo, human; details: adjusted for differences in baseline PD-1 expression; for decrease in PD-1-positive CD8 T cells: pooled RAD001 cohort compared to placebo cohort
[2] = Clinical trial in elderly volunteers: adverse events, safety and tolerability; assay type: in vivo, human; details: N = 53

CO[C@H]1C[C@@H]2CC[C@@H](C)[C@@](O)(O2)C(=O)C(=O)N2CCCC[C@H]2C(=O)O[C@H]([C@H](C)C[C@@H]2CC[C@@H](OCCO)[C@H](OC)C2)CC(=O)[C@H](C)/C=C(\C)[C@@H](O)[C@@H](OC)C(=O)[C@H](C)C[C@H](C)/C=C/C=C/C=C/1C [RAD001, (1R,9S,12S,15R,16E,18R,19R,21R,23S,24E,26E,28E,30S,32S,35R)-1,18-dihydroxy-12-{(1R)-2-[(1S,3R,4R)-4-(2-hydroxyethoxy)-3-methoxycyclohexyl]-1-methylethyl}-19,30-dimethoxy-15,17,21,23,29,35-hexamethyl-11,36-dioxa-4-aza-tricyclo[30.3.1.04,9]hexatriaconta-16,24,26,28-tetraene-2,3,10,14,20-pentaone]
decrease in PD-1-positive CD8 T cells ([1]; week 6): 37.4%
decrease in PD-1+ CD4 T cells ([1]; week 6, pooled RAD cohort compared to placebo cohort): 30.2%
decrease in PD-1-positive CD8 T cells ([1]; week 12): 41.4%
decrease in PD-1-positive CD4 T cells ([1]; week 12, pooled RAD cohort compared to placebo cohort): 32.7%
Blood cholesterol increased, treatment-related AE ([2]; RAD001 0.5 mg daily): 2 (3.8%) n (%)
Conjunctivitis, treatment-related AE ([2]; RAD001 0.5 mg daily): 0 n (%)
Diarrhea, treatment-related AE ([2]; RAD001 0.5 mg daily): 1 (1.9%) n (%)
Dry mouth, treatment-related AE ([2]; RAD001 0.5 mg daily): 0 n (%)
Dyspepsia, treatment-related AE ([2]; RAD001 0.5 mg daily): 0 n (%)
Erythema, treatment-related AE ([2]; RAD001 0.5 mg daily): 0 n (%)
Fatigue, treatment-related AE ([2]; RAD001 0.5 mg daily): 0 n (%)
Headache, treatment-related AE ([2]; RAD001 0.5 mg daily): 0 n (%)
Insomnia, treatment-related AE ([2]; RAD001 0.5 mg daily): 1 (1.9%) n (%)
Limb discomfort, treatment-related AE ([2]; RAD001 0.5 mg daily): 0 n (%)
Low density lipoprotein increased, treatment-related AE ([2]; RAD001 0.5 mg daily): 2 (3.8%) n (%)
Mouth ulceration, treatment-related AE ([2]; RAD001 0.5 mg daily): 6 (11.3%) n (%)
Mucosal inflammation, treatment-related AE ([2]; RAD001 0.5 mg daily): 0 n (%)
Neutropenia, treatment-related AE ([2]; RAD001 0.5 mg daily): 0 n (%)
Oral pain, treatment-related AE ([2]; RAD001 0.5 mg daily): 0 n (%)
Paresthesia oral, treatment-related AE ([2]; RAD001 0.5 mg daily): 2 (3.8%) n (%)
Patients with AE(s), treatment-related ([2]; RAD001 0.5 mg daily): 22 (41.5%) n (%)
Pruritus, treatment-related AE ([2]; RAD001 0.5 mg daily): 0 n (%)
Stomatitis, treatment-related AE ([2]; RAD001 0.5 mg daily): 0 n (%)
Thrombocytopenia, treatment-related AE ([2]; RAD001 0.5 mg daily): 0 n (%)
Tongue ulceration, treatment-related AE ([2]; RAD001 0.5 mg daily): 3 (5.7%) n (%)
Total AE(s), treatment-related ([2]; RAD001 0.5 mg daily): 35 n (%)
Urinary tract infection, treatment-related AE ([2]; RAD001 0.5 mg daily): 0 n (%)
Blood cholesterol increased, treatment-related AE ([2]; RAD001 5 mg weekly): 2 (3.8%) n (%)
Conjunctivitis, treatment-related AE ([2]; RAD001 5 mg weekly): 2 (3.8%) n (%)
Diarrhea, treatment-related AE ([2]; RAD001 5 mg weekly): 4 (7.5%) n (%)
Dry mouth, treatment-related AE ([2]; RAD001 5 mg weekly): 0 n (%)
Dyspepsia, treatment-related AE ([2]; RAD001 5 mg weekly): 3 (5.7%) n (%)
Erythema, treatment-related AE ([2]; RAD001 5 mg weekly): 2 (3.8%) n (%)
Fatigue, treatment-related AE ([2]; RAD001 5 mg weekly): 2 (3.8%) n (%)
Headache, treatment-related AE ([2]; RAD001 5 mg weekly): 2 (3.8%) n (%)
Insomnia, treatment-related AE ([2]; RAD001 5 mg weekly): 2 (3.8%) n (%)
Limb discomfort, treatment-related AE ([2]; RAD001 5 mg weekly): 2 (3.8%) n (%)
Low density lipoprotein increased, treatment-related AE ([2]; RAD001 5 mg weekly): 1 (1.9%) n (%)
Mouth ulceration, treatment-related AE ([2]; RAD001 5 mg weekly): 2 (3.8%) n (%)
Mucosal inflammation, treatment-related AE ([2]; RAD001 5 mg weekly): 0 n (%)
Neutropenia, treatment-related AE ([2]; RAD001 5 mg weekly): 0 n (%)
Oral pain, treatment-related AE ([2]; RAD001 5 mg weekly): 2 (3.8%) n (%)
Paresthesia oral, treatment-related AE ([2]; RAD001 5 mg weekly): 0 n (%)
Patients with AE(s), treatment-related ([2]; RAD001 5 mg weekly): 20 (37.7%) n (%)
Pruritus, treatment-related AE ([2]; RAD001 5 mg weekly): 2 (3.8%) n (%)
Stomatitis, treatment-related AE ([2]; RAD001 5 mg weekly): 0 n (%)
Thrombocytopenia, treatment-related AE ([2]; RAD001 5 mg weekly): 0 n (%)
Tongue ulceration, treatment-related AE ([2]; RAD001 5 mg weekly): 1 (1.9%) n (%)
Total AE(s), treatment-related ([2]; RAD001 5 mg weekly): 46 n (%)
